Measured values published in article PMC4564171 (PLoS ONE, 2015).

B1: pvirB FP probe (dsDNA)
DNA 1: AGAATATTATTCTTTTATCCAATAAAGATAAATTGCATCAATCCAGCTATTAAAATAGTA
DNA 2: TACTATTTTAATAGCTGGATTGATGCAATTTATCTTTATTGGATAAAAGAATAATATTCT
B2: pvirB EMSA probe (dsDNA)
DNA 1: GTGCCCTGGTCTGG
DNA 2: B1 DNA 1
DNA 3: TACTATTTTAATAGCTGGATTGATGCAATTTATCTTTATTGGATAAAAGAATAATATTCTCCAGACCAGGGCAC
B3: pScram FP probe (dsDNA)
DNA 1: TAAGTCCTAAATGGAAATTAAATTACGTAATTCACAAATATAGTATGATCATTTATATCA
DNA 2: TGATATAAATGATCATACTATATTTGTGAATTACGTAATTTAATTTCCATTTAGGACTTA
B4: pScram EMSA probe (dsDNA)
DNA 1: GTGCCCTGGTCTGG
DNA 2: B3 DNA 1
DNA 3: TGATATAAATGATCATACTATATTTGTGAATTACGTAATTTAATTTCCATTTAGGACTTACCAGACCAGGGCAC

Columns and labels:
[1] = target: T1, MalE-VirF binding to the 5'Cy5-pvirB DNA probe (Shigella flexneri, UniProt P0A2T1); test: Electrophoretic mobility shift assay (EMSA) of MalE-VirF binding to pvirB DNA probe; conditions: compound 100 μM; MalE-VirF 1 μM; probe 0.25 μM
T1 construct: pMALvirF was constructed by cloning the virF gene into the vector, pMAL-c2x; made in house; host or cells: Shigella flexneri BS103 (pBAD202-MALvirF); initial preparations in E. coli KS1000 (pMALvirF)
Procedure: Reactions for the EMSAs were incubated in a 37°C water bath for 15 minutes. Reactions (15 μL total volume) were composed of 6 μL pvirB EMSA DNA probe (0.25 μM), 6 μL of either MalE-VirF (1.0 μM) or native gel loading buffer (Tris-HCl 0.3 M, 50% glycerol, 0.05% bromophenol blue, pH 7.0), 1 μL of salmon sperm DNA (0.7 mg/mL, Invitrogen), 0.5 μL BSA (0.07 mg/mL), and 1.5 μL of either DMSO or compound (100 μM). A 6% native polyacrylamide gel (29:1 acrylamide to bis-acrylamide ratio) was made with 0.25X TBE buffer (22 mM Tris Base, 22 mM boric acid, 0.5 mM EDTA, pH 9.5) for the EMSA. The gel was electrophoresed for 1 hour at 150 V in 0.25X TBE buffer at 4°C before samples were loaded. After the reaction solutions (12 μL) were loaded onto the gel, the gel was electrophoresed for an additional hour at 150 V and 4°C. The gel was then visualized using FluorChem M gel imager (Protein Simple, Santa Clara, CA) with a 607 nm excitation wavelength and a 710 nm emission filter.

[2] = test system: spread of an active S. flexneri infection; conditions: at concentrations at or below their IC50s in the reporter assay; cited from earlier work
[3] = target: T2, MalE-VirF binding to the pvirB DNA probe (Shigella flexneri, UniProt P0A2T1); test: Fluorescence polarization (FP) assay, inhibition of MalE-VirF binding to the pvirB DNA probe; conditions: read-out: % Inhibition at 100 μM
T2 construct: pMALvirF was constructed by cloning the virF gene into the vector, pMAL-c2x; made in house; host or cells: Shigella flexneri BS103 (pBAD202-MALvirF); initial preparations in E. coli KS1000 (pMALvirF)
Procedure: The FP assays were conducted in duplicate in black, half-area, 96-well plates (Corning, Twerksbury, MA). First, 30 μL of 5’-Fluoroscein-pvirB DNA probe working standard was added to appropriate wells of the microplate. The pvirB DNA working standard was in TE/NaCl buffer (see above) supplemented with BSA (0.07 mg/mL) and salmon sperm DNA (0.7 mg/mL). Next, 30 μL of varying concentrations of MalE-VirF in amylose resin elution buffer (see above) was added to appropriate wells of the microplate. The final concentration of pvirB DNA was either 50 nM (for test wells) or none (for blank wells) and the final concentrations of MalE-VirF ranged from 45 μM to 0.12 μM (for test wells) or none (for control wells). For each concentration of MalE-VirF tested, a blank well was also set up that included all reagents except pvirB DNA. The microplate was then incubated for 20 minutes at 37°C and anisotropy was determined using a SpectraMax M5 plate reader (Molecular Devices, Sunnyvale, CA). Data was acquired using an excitation wavelength equal to 490 nm and an emission wavelength equal to 520 nm. To determine anisotropy the following equation was used: Anisotropy=F∥-G^*F⊥/F∥+2^*G^*F⊥^*1000 where: Fǁ = fluorescence intensity parallel to excitation source after blanking, F┴ = fluorescence intensity perpendicular to excitation source after blanking, and G = G-factor (correction for polarization bias of the detection system). After anisotropy was determined, data were plotted using GraphPad Prism (La Jolla, Ca) and fit to the following equation: […] where Y = specific binding, KD = dissociation constant, BMAX = maximum binding, X = MalE-VirF concentration, and b = y-intercept.
The FP protocol listed above was adapted to determine the IC50 of the small molecule hit compounds. Compounds (ranging from 200 μM to 3.1 μM) or DMSO for controls (1% final concentration) were added to the pvirB DNA probe working standard prior to addition to the microplates. For IC50 determination, the MalE-VirF and pvirB DNA probe concentrations were held constant at 20 μM and 50 nM, respectively. Positive controls were established to determine 100% VirF inhibition (no MalE-VirF present, 50 nM pvirB DNA probe) and negative controls were set up to determine no VirF inhibition (1% DMSO, 20 μM MalE-VirF, and 50 nM pvirB DNA probe). Once again blanks were set up to include all reagents, except pvirB DNA probe. All reactions were run in duplicate. Anisotropy was calculated as listed above and data were plotted using GraphPad Prism then fit to the following equation: Y=Bottom+(Top-Bottom)/(1+10^(X-logIC50)) where: Y = anisotropy, X = log of compound concentration (M), Top and Bottom = plateaus in anisotropy units, and LogIC50 = log of the concentration that inhibits 50% of VirF binding. In the presence of the compounds (no VirF), a small increase (~6%) in the DNA anisotropy was observed.
The FP protocol used for IC50 determination was adapted to test a library of small molecule inhibitors of VirF. All steps were identical to the above protocol except compounds were tested at only 100 μM final concentration and positive control samples included 100 μM of compound. Once again blanks were set up to include all reagents, except pvirB DNA probe, and all reactions were run in duplicate. Anisotropy was calculated as listed above, and %inhibition was calculated as follows: %inhibition=rneg-rtest/rneg^*100 where: rneg = average anisotropy for negative controls and rtest = average anisotropy in presence of compound. Note: All rneg and rtest values were normalized to positive control values.

[4] = test system: 60 bp pvirB FID (DNA, duplex) AGAATATTATTCTTTTATCCAATAAAGATAAATTGCATCAATCCAGCTATTAAAATAGTA/TACTATTTTAATAGCTGGATTGATGCAATTTATCTTTATTGGATAAAAGAATAATATTCT; test: fluorescent intercalator displacement (ethidium bromide); conditions: 0.1 M NaCl; 0.1 M Tris-HCl pH 8.0, room temperature; 45 μM ethidium; 1.5 μM DNA; highest tested 100 μM
[5] = test system: 10 bp pvirB 51-60 FID (DNA, duplex) TAAAATAGTA/TACTATTTTA; test: as above; conditions: 0.1 M NaCl; 0.1 M Tris-HCl pH 8.0, room temperature; 7.5 μM ethidium; 1.5 μM DNA; highest tested 100 μM
MalE-VirF [6] = target: T3, MalE-VirF (Shigella flexneri, UniProt P0A2T1 1-262); test: fluorescence anisotropy; conditions: protein: recombinant; tags: N-terminal MalE (MBP) fusion, not cleaved; label: 5'-fluorescein on top strand; blunt
MalE-VirF [7] = target: T3, MalE-VirF; test: EMSA; 1 uM MalE-VirF, 0.25 uM DNA; conditions: protein: recombinant, tags: N-terminal MalE (MBP) fusion, not cleaved, label: 5'-Cy5 on LUEGO strand (S5), blunt, three strands
MalE-VirF [8] = target: T3, MalE-VirF; test: fluorescence anisotropy; 20 uM MalE-VirF, 50 nM DNA (r = 39 alone, 36 with protein); conditions: protein: recombinant; tags: N-terminal MalE (MBP) fusion, not cleaved; label: 5'-fluorescein on top strand; blunt

T2 sequence (P0A2T1 whole entry, looked up): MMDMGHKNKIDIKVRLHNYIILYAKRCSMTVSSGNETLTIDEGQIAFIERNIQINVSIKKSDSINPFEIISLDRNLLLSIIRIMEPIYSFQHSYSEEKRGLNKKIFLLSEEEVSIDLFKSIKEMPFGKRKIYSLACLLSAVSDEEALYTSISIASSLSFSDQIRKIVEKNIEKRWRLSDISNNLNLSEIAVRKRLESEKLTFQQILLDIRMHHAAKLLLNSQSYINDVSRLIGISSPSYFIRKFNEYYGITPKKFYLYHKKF
T3 sequence (P0A2T1 whole entry, the tested form may be a part): as the sequence (P0A2T1 whole entry, looked up) above
T1 sequence (P0A2T1 whole entry, looked up): as above

Molecule	inhibition at 100 µM [3] [%]	also measured
Clc1ccc2nc(COc3ccccc3)[nH]c2c1 [compound 153578]	–	Effect on MalE-VirF binding to the pvirB DNA probe (EMSA) [1]: little to no effect on DNA binding; Inhibition of the spread of an active S. flexneri infection [2]: approximately 75%
c1ccc(-c2nc(N3CCOCC3)c3oc4ccccc4c3n2)cc1 [compound 9111063]	-5 ± 0.1	–
CCN(CC)CCOc1nc(C)nc2c1oc1ccccc12 [compound 050908]	18 ± 0.4	–
CNCCOc1nc(-c2ccccc2)nc2c1oc1ccccc12	–	%fluorescence [4]: 93 ± 3%; %fluorescence [5]: 95 ± 1%
CCc1nc(OCCN(C)C)c2oc3ccccc3c2n1 [compound 587469]	16 ± 0.4	–
CCN(CC)CCOc1nc(-c2ccccc2)nc2c1oc1ccccc12 [compound 587109]	43 ± 1	–
c1ccc(-c2nc(Oc3cccnc3)c3oc4ccccc4c3n2)cc1 [compound 9660232]	17 ± 2	–
O=c1[nH]c(-c2ccc(C(F)(F)F)cc2)nc2c1oc1ccccc12 [compound 765345]	1 ± 0.1	–
CCN(CC)c1cccc(Oc2nc(-c3ccccc3)nc3c2oc2ccccc23)c1 [compound 9660235]	5 ± 0.2	–
CCN(CC)CCNc1nc(-c2ccccc2)nc2c1oc1ccccc12 [compound 048373]	15 ± 0.4	–
c1ccc(-c2nc(N3CCN(c4ccccc4)CC3)c3oc4ccccc4c3n2)cc1 [compound 568180]	2 ± 0.1	–
CN1CCN(c2nc(-c3ccccc3)nc3c2oc2ccccc23)CC1 [compound 078044]	42 ± 0.4	–
CCN(CC)CCCOc1nc(-c2ccccc2)nc2c1oc1ccccc12 [compound 598089]	68	–
B1	–	Kd (MalE-VirF [6]): 2800 ± 1000 nM
B2	–	binding result (MalE-VirF [7]; LUEGO (S5) and top (S1) abut with a nick on bottom S2 (74 nt)): binds
B3	–	binding result (MalE-VirF [8]): no binding
B4	–	binding result (MalE-VirF [7]; LUEGO (S5) and top (S3) abut with a nick on bottom S4 (74 nt)): no binding
